Data set [1] in a line: physchem.
Data set [2] in a line: Solubility assay (kinetic solubility, PBS pH 7). The settings on record: pH 7, PBS; for solubility kinetic: pH 7, aqueous buffer, kinetic from dmso stock, read-out: Solubility. The class given is physicochemical. In outline: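 Quantitation uses an external standard at 100 µM, prepared from 10 mM stock in acetonitrile:methanol:DMSO (10:80:10). Solubility (µM) = (peak area of sample ÷ peak area of standard) × standard concentration.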

The nature of data set [3]: Lactate dehydrogenase (LDH) release assay. The settings on record: LDH: Cytotoxicity assay EC50. The data set is classed as cell-based. In outline: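 LDH release, fluorometric membrane-integrity read-out; HCT116 with stable p53-responsive β-lactamase reporter; 8000 cells/well; 0.5% DMSO final; geometric mean, n≥3 biological replicates.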
Data set [4] can be described thus: in vitro. To be noted: Nanoclick permeability assay EC50. The essentials: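 Azido-peptide permeability was read as loss of NanoBRET signal (donor 450 nm, acceptor 610 nm) after adding NanoBret618-azide at 10 μM final.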
Data set [5] is described as follows: Experimental LogD (partition coefficient). The settings on record: for logD: not stated, Partition Coeff LogD.
Data set [6] deals with Ca Ski cell line. The settings on record: 72 h. As for the experimental part: (§1) The medium for CellSensor™ p53RE-bla HCT-116 cells was McCoy’s 5 A Medium (GIBCO16600-002) supplied with 10% FBS (Hyclone, SH30406.05), 100 U/100ug/ml of Pen/Strep (SolarBio, P1400) and 5 μg/ml of blasticidin (GIBCO, A11139). The medium for Ca Ski cells was RPMI1640 (Hyclone, SH3080901B) supplied with 10% FBS and 100 U/100ug/ml of Pen/Strep. All cells were kept in humidified incubators with 5% CO2 at 37 °C. Culture media was changed after one day of subculturing and cells were passed again when there was 70–80% confluence. One day before the assay, the cells were trypsinized, collected, counted and viability was determined. […] The plates were kept in humidified incubators with 5% CO2 at 37 °C overnight. Compounds were prepared as a 10 point, 3x serial dilution in 100% DMSO, starting from a top concentration of 10 mM. […] At the end of the incubation the assay plate was equilibrated at room temperature for approximately 30 minutes prior to the addition of 25 uL of CellTiter-Glo® 2.0 Reagent. The assay plate was mixed for 2 minutes on an orbital shaker to induce cell lysis. Next, the plate was incubated at room temperature for 10 minutes to stabilize the luminescent signal prior to recording the luminescence on a plate reader.

The subject of data set [7] is CellSensor p53RE-bla HCT-116 Cell Line. The settings on record: 72 h. As for the experimental part:
as §1

As usually defined, the EC50 is the concentration giving half of the maximal effect. Usually logD stands for lipophilicity at a set pH, counting ionised and neutral species. A low value points to a more hydrophilic compound.

Structures are written as SMILES. ≈ marks a conversion by molar mass, not a printed value. Positions of bridges follow the written chain, without caps; N, C: chain ends. Non-standard residues stand in square brackets, D forms with d. Residues, ends and D or L forms follow the SMILES beside them. Lys(N3) = [N-]=[N+]=NCCCC[C@H](N)C(=O)O; R8 = C=CCCCCCC[C@@](C)(N)C(=O)O; Cba = N[C@@H](CC1CCC1)C(=O)O; S5 = C=CCCC[C@](C)(N)C(=O)O; βAla = NCCC(=O)O Where only a bound is given, the exact number is not on record here.

In turn, `CC(=O)N[C@@H](CCCCN=[N+]=[N-])C(=O)NCCC(=O)N[C@@H](CC(C)C)C(=O)N[C@H](C(=O)N[C@@H](Cc1ccccc1)C(=O)N[C@]1(C)CCCCCCC=CCCC[C@@](C)(C(=O)N[C@@H](CCCNC(=N)N)C(=O)N[C@@H](C)C(=O)N[C@@H](C)C(N)=O)NC(=O)[C@H](CC2CCC2)NC(=O)[C@H](CCC(N)=O)NC(=O)[C@H](C)NC(=O)[C@H](Cc2c[nH]c3ccccc23)NC(=O)[C@H](Cc2ccc(O)cc2)NC(=O)[C@H](CCC(=O)O)NC1=O)[C@@H](C)O` [MP-557] (Ac-[Lys(N3)][βAla]LTF[R8]EYWAQ[Cba][S5]RAA-NH2; staple 6-13) showed an EPSA in data set [1] of 219 A^2. In data set [2], the Solubility result was “Poorly Behaved”. In addition, the concentration for a half-maximal effect (EC50) in data set [3] was > 50 µM; in data set [6], > 49.8 µM; in data set [7], 2.04 µM. The cell entry EC50 in data set [4] came to 136 nM. In data set [5], the “Partition Coeff LogD” value was “Poorly Behaved”.

Regarding `CC(=O)N[C@@H](CCCCN=[N+]=[N-])C(=O)NCCC(=O)N[C@@H](CC(C)C)C(=O)N[C@H](C(=O)N[C@@H](Cc1ccccc1)C(=O)N[C@]1(C)CCCCCCC=CCCC[C@@](C)(C(=O)N[C@@H](CO)C(=O)N[C@@H](C)C(=O)N[C@@H](C)C(N)=O)NC(=O)[C@H](CC2CCC2)NC(=O)[C@H](CCC(N)=O)NC(=O)[C@H](C)NC(=O)[C@H](Cc2c[nH]c3ccccc23)NC(=O)[C@H](Cc2ccc(O)cc2)NC(=O)[C@H](CCCNC(=N)N)NC1=O)[C@@H](C)O` [MP-554] (Ac-[Lys(N3)][βAla]LTF[R8]RYWAQ[Cba][S5]SAA-NH2; staple 6-13), the EPSA in data set [1] stood at 215 A^2. Besides, the Solubility entry in data set [2] was “Poorly Behaved”. Also, the values for the EC50 in data set [3], in data set [6] and in data set [7] were 30.4 µM, 11.4 µM and 5.79 µM, respectively. Besides, the cell entry EC50 in data set [4] stood at 586 nM. The compound further had a logD in data set [5] of 3.28.

Compound `CC(=O)N[C@@H](CCCCN=[N+]=[N-])C(=O)NCCC(=O)N[C@@H](CC(C)C)C(=O)N[C@H](C(=O)N[C@@H](Cc1ccccc1)C(=O)N[C@]1(C)CCCCCCC=CCCC[C@@](C)(C(=O)N[C@@H](CO)C(=O)N[C@@H](C)C(=O)N[C@@H](C)C(N)=O)NC(=O)[C@H](CC2CCC2)NC(=O)[C@H](CCC(=O)O)NC(=O)[C@H](C)NC(=O)[C@H](Cc2c[nH]c3ccccc23)NC(=O)[C@H](Cc2ccc(O)cc2)NC(=O)[C@H](CCC(=O)O)NC1=O)[C@@H](C)O` [MP-181] had an EPSA in data set [1] of 249 A^2. Moreover, the solubility kinetic in data set [2] turned out to be 179 µM (≈ 353 µg/mL). Also, the EC50 in data set [3] was > 50 µM; in data set [6] it was > 49.8 µM; in data set [7], 4.64 µM. In addition, the cell entry EC50 in data set [4] was determined as 304 nM. Further, the logD in data set [5] turned out to be 2.74.

`CC(=O)N[C@@H](CCCCN=[N+]=[N-])C(=O)NCCC(=O)N[C@@H](CCC(=O)O)C(=O)N[C@H](C(=O)N[C@@H](Cc1ccccc1)C(=O)N[C@]1(C)CCCCCCC=CCCC[C@@](C)(C(=O)N[C@@H](CO)C(=O)N[C@@H](C)C(=O)N[C@@H](C)C(N)=O)NC(=O)[C@H](CC2CCC2)NC(=O)[C@H](CCC(N)=O)NC(=O)[C@H](C)NC(=O)[C@H](Cc2c[nH]c3ccccc23)NC(=O)[C@H](Cc2ccc(O)cc2)NC(=O)[C@H](CCC(=O)O)NC1=O)[C@@H](C)O` [MP-178]: the EPSA in data set [1] came to 254 A^2. Moreover, in data set [2], the solubility kinetic is 169 µM (≈ 336 µg/mL). In addition, the EC50 in data set [3] is > 50 µM; in data set [6], > 49.8 µM; in data set [7], 2.74 µM. In data set [4], the cell entry EC50 came out at 292 nM. Besides, the pH-dependent lipophilicity (logD) in data set [5] stood at 2.47.

Take `CC(=O)N[C@@H](CCCCN=[N+]=[N-])C(=O)NCCC(=O)N[C@@H](CC(C)C)C(=O)N[C@@H](CCCNC(=N)N)C(=O)N[C@@H](Cc1ccccc1)C(=O)N[C@]1(C)CCCCCCC=CCCC[C@@](C)(C(=O)N[C@@H](CO)C(=O)N[C@@H](C)C(=O)N[C@@H](C)C(N)=O)NC(=O)[C@H](CC2CCC2)NC(=O)[C@H](CCC(N)=O)NC(=O)[C@H](C)NC(=O)[C@H](Cc2c[nH]c3ccccc23)NC(=O)[C@H](Cc2ccc(O)cc2)NC(=O)[C@H](CCC(=O)O)NC1=O` [MP-553] (Ac-[Lys(N3)][βAla]LRF[R8]EYWAQ[Cba][S5]SAA-NH2; staple 6-13): in data set [1], the EPSA is 232 A^2. Moreover, the Solubility entry in data set [2] is given as “Poorly Behaved”. The EC50 in data set [3] was > 50 µM; in data set [6], > 49.8 µM; in data set [7] it was 6.78 µM. Moreover, in data set [4], the cell entry EC50 was determined as 174 nM. Moreover, in data set [5], the log distribution coefficient (logD) turned out to be 2.86.

The compound `CC(=O)N[C@@H](CCCCN=[N+]=[N-])C(=O)NCCC(=O)N[C@@H](CC(C)C)C(=O)N[C@@H](CCC(=O)O)C(=O)N[C@@H](Cc1ccccc1)C(=O)N[C@]1(C)CCCCCCC=CCCC[C@@](C)(C(=O)N[C@@H](CO)C(=O)N[C@@H](C)C(=O)N[C@@H](C)C(N)=O)NC(=O)[C@H](CC2CCC2)NC(=O)[C@H](CCC(N)=O)NC(=O)[C@H](C)NC(=O)[C@H](Cc2c[nH]c3ccccc23)NC(=O)[C@H](Cc2ccc(O)cc2)NC(=O)[C@H](CCC(=O)O)NC1=O` [MP-179] showed an EPSA in data set [1] of 243 A^2. Further, the solubility kinetic in data set [2] turned out to be 102 µM (≈ 205 µg/mL). In addition, the EC50 in data set [3] was > 50 µM; in data set [6], > 49.8 µM; in data set [7] it was 13.6 µM. Further, in data set [4], the cell entry EC50 was 173 nM. Further, in data set [5], the logD was determined as 2.5.

In data set [1], `CC(=O)N[C@@H](CCCCN=[N+]=[N-])C(=O)NCCC(=O)N[C@@H](CC(C)C)C(=O)N[C@H](C(=O)N[C@@H](Cc1ccccc1)C(=O)N[C@]1(C)CCCCCCC=CCCC[C@@](C)(C(=O)N[C@@H](CO)C(=O)N[C@@H](C)C(=O)N[C@@H](C)C(N)=O)NC(=O)[C@H](CC2CCC2)NC(=O)[C@H](CCC(N)=O)NC(=O)[C@H](Cc2c[nH]c3ccccc23)NC(=O)[C@H](Cc2c[nH]c3ccccc23)NC(=O)[C@H](Cc2ccc(O)cc2)NC(=O)[C@H](CCC(=O)O)NC1=O)[C@@H](C)O` [MP-186] (Ac-[Lys(N3)][βAla]LTF[R8]EYWWQ[Cba][S5]SAA-NH2; staple 6-13) returned an EPSA of 238 A^2. Further, the figures for the EC50 in data set [3], in data set [6] and in data set [7] were > 50 µM, 21.5 µM and 5.8 µM, respectively. Further, the cell entry EC50 in data set [4] stood at 194 nM. The compound further showed a logD in data set [5] of 3.26.

`CC(=O)N[C@@H](CCCCN=[N+]=[N-])C(=O)NCCC(=O)N[C@@H](CC(C)C)C(=O)N[C@H](C(=O)N[C@@H](Cc1ccccc1)C(=O)N[C@]1(C)CCCCCCC=CCCC[C@@](C)(C(=O)N[C@@H](CO)C(=O)N[C@@H](C)C(=O)N[C@@H](C)C(N)=O)NC(=O)[C@H](CC2CCC2)NC(=O)[C@H](CCCNC(=N)N)NC(=O)[C@H](C)NC(=O)[C@H](Cc2c[nH]c3ccccc23)NC(=O)[C@H](Cc2ccc(O)cc2)NC(=O)[C@H](CCC(=O)O)NC1=O)[C@@H](C)O` [MP-556] (Ac-[Lys(N3)][βAla]LTF[R8]EYWAR[Cba][S5]SAA-NH2; staple 6-13) yielded an EPSA in data set [1] of 221 A^2. For the same compound, the EC50 in data set [3] was > 50 µM; in data set [6], > 49.8 µM; in data set [7], 3.14 µM. Moreover, in data set [4], the cell entry EC50 is 149 nM. For the same compound, the logD in data set [5] came out at 3.15.

(Values after PMC10786919, “Design-rules for stapled peptides with in vivo activity and their application to Mdm2/X antagonists” (Nature Communications, 2024).)
